Assay [1] has as its system MRC5 (human foetal lung fibroblast) cells. Description: Antiproliferative activity against human cell line, SRB assay. As to conditions: 24 h drug exposure and 72 h recovery in drug-free medium. In kind it is cell-based. The method, then: MRC5 (human foetal lung fibroblast) cell lines were obtained from Public Health England (mycoplasma-free status confirmed at six-monthly intervals by internal and external screening). They were thawed upon receipt and the supernatant removed after centrifugation (1000 rpm, 5 min). Cells were re-suspended in DMEM culture medium (supplemented with 10% v/v FCS, 1% penicillin/streptomycin, and 1% L-glutamine) and grown as adherent monolayers at 310 K in a 5% CO2 humidified atmosphere. Cells were passaged using trypsin/EDTA after reaching ∼90% confluence. Trypsin activity was quenched by addition of excess medium, and the single-cell suspension passaged twice weekly. MRC5 fibroblasts were discarded after five passages.
Briefly, 5 × 10^3 cells (MRC5) were seeded in a 96-well plate using 0.15 mL of culture medium. After 48 h pre-incubation at 310 K, the supernatant was removed and cells exposed to six concentrations (0–100 µM) of osmium complex, for which exact concentrations were determined using ICP-OES (calibration standards for Os freshly prepared in 3.6% v/v nitric acid containing 100 mg L^–1 ascorbic acid and 10 mM thiourea). DMSO was used to aid solubility of Os complexes, but never exceeded 0.5% v/v in the final culture medium. Cells were exposed to Os complexes for 24 h, and then washed with PBS and allowed 72 h recovery time in drug-free medium. Cell viability was determined using the sulforhodamine B (SRB) assay. Cells were fixed using 50 µL of 50% TCA, incubated at 277 K for 1 h, and then stained using SRB dye (0.4% dye in 1% acetic acid). After 30 min, excess dye was removed by acetic acid washing, and then the stain liberated using Tris base (10 mM, pH 10.5). Absorbance was measured using a Thermo Scientific Multiskan FC microplate reader fitted with a 492-nm filter. Data were processed using Microsoft Excel and are reported as percentage survival relative to the untreated control. Sigmoidal dose/response curves were fitted using Origin 2016 to determine IC50. Data were acquired as duplicate of triplicate experiments, with a positive control of cisplatin (CDDP).
In general terms: In SRB staining, fixed cells bind dye roughly in proportion to their protein.

Assay [2] concerns Mtb. Description: Minimum bactericidal concentration against Mtb (CFU plating). In kind it is cell-based, Mycobacterium tuberculosis. As to conditions: for bactericidal character against actively growing Mtb: from correlation of MBC with MIC; for MBC (minimal bactericidal concentration): lowest concentration with no CFUs on 7H10 medium. As for the experimental part:
The minimum bactericidal activity (MBC) was determined by setting up a microtitre plate as performed for the MIC determination. Instead of adding resazurin, each well from the microtitre plate was plated on to solid 7H10 medium and the CFUs were determined after incubation at 37°C. The lowest concentration at which no CFUs were counted was taken as the MBC. The MBCs were carried out with three independent experimental repeats.

The subject of a further assay is Mtb H37Rv. Description: MIC against Mtb H37Rv, resazurin microtitre assay. In kind it is cell-based, Mycobacterium tuberculosis. As to conditions: 7-day exposure, Middlebrook 7H9 broth, 0.2% glycerol, 0.05% Tween 80, 10% ADC, three biological repeats. (Resazurin is reduced to fluorescent resorufin, in cell work by metabolically active cells.)
Assay [3] has as its system Mtb. The following applies: comparison values, no reference given; cited from earlier work.

Values after ≈ are worked out from the molar mass of the structure shown.

By IC50 is commonly meant the concentration that gives 50% inhibition. Low values mean inhibition by little substance, high ones a need for much substance. As usually defined, the MIC is the smallest concentration in the dilution series that meets the test's criterion for growth inhibition. In assay [1], `CN(C)c1ccc(N=Nc2ccccn2)cc1.Cc1ccc(C(C)C)cc1.F[P-](F)(F)(F)(F)F.[Cl][Os+]` [Complex 1] came in with an IC50 of 7.1 ± 0.2 µM. In addition, in the assay with Mtb [2], the “bactericidal character against actively growing Mtb” value is recorded as “bactericidal” and the “MBC (minimal bactericidal concentration)” value came to 12.5 µM. The MIC against Mtb H37Rv amounted to 5 µM.
`NNC(=O)c1ccncc1` [isoniazid]: the “MIC of current clinical TB drugs” value with Mtb [3] was approximately 1 µM.
In assay [1], `CN(C)c1ccc(N=Nc2ccccn2)cc1.F[P-](F)(F)(F)(F)F.[I][Os+].c1ccc(-c2ccccc2)cc1` [Complex 4] registered an IC50 of 0.42 ± 0.03 µM. Besides, in the assay with Mtb [2], the “bactericidal character against actively growing Mtb” value was “bactericidal” and the “MBC (minimal bactericidal concentration)” value turned out to be 6.25 µM. Besides, the MIC with Mtb H37Rv is 2.5 µM.
`CN(C)c1ccc(N=Nc2ccccn2)cc1.Cc1ccc(C(C)C)cc1.[Cl-].[I][Os+]` [Complex 7] gave an IC50 in assay [1] of 0.68 ± 0.03 µM. The compound also came in with an MIC in the assay on Mtb H37Rv of 1.25 µM.
Taken in the same sequence, the figures for `CN(C)c1ccc(N=Nc2ccccn2)cc1.F[P-](F)(F)(F)(F)F.[Cl][Os+].c1ccc(-c2ccccc2)cc1` [Complex 3] were 16.9 ± 0.1 µM and 31.25 µM.
`Brc1ccc(N=Nc2ccccc2)nc1.Cc1ccc(C(C)C)cc1.F[P-](F)(F)(F)(F)F.[Cl][Os+]` [Complex 11] gave an IC50 in assay [1] of 18 ± 1 µM. For the same compound, the MIC in the assay on Mtb H37Rv is 125 µM.
Taken in the same sequence, the figures for `Cc1ccc(C(C)C)cc1.Clc1ccc(N=Nc2ccccc2)nc1.F[P-](F)(F)(F)(F)F.[I][Os+]` [Complex 14] were 16 ± 2 µM and 62.5 µM.
On to `CO[C@H]1/C=C/O[C@@]2(C)Oc3c(C)c(O)c4c(O)c(c(/C=N/N5CCN(C)CC5)c(O)c4c3C2=O)NC(=O)/C(C)=C\C=C\[C@H](C)[C@H](O)[C@@H](C)[C@@H](O)[C@@H](C)[C@H](OC(C)=O)[C@@H]1C` [Rifampicin, reference compound], for which the MIC with Mtb H37Rv (Mycobacterium tuberculosis, H37RV, 168 h) is 0.38 to 0.76 µM (≈ 0.313 to 0.625 µg/mL).
For capreomycin, in the assay on Mtb [3], the “MIC of current clinical TB drugs” value is approximately 3 µM.
Consider `Cc1ccc(C(C)C)cc1.F[P-](F)(F)(F)(F)F.Fc1ccc(N=Nc2ccccc2)nc1.[I][Os+]` [Complex 12], for which, in assay [1], inhibition was half-maximal at 9.1 ± 0.6 µM (IC50). Besides, in the assay on Mtb H37Rv, the MIC was determined as 15.6 µM.
On to `CN(C)c1ccc(N=Nc2ccccn2)cc1.Cc1ccc(C(C)C)cc1.F[P-](F)(F)(F)(F)F.[I][Os+]` [Complex 2, [Os(AzPy-NMe2)I(p-cymene)]PF6], for which half-maximal inhibition in assay [1] (IC50) required 0.89 ± 0.01 µM. Moreover, in the assay on Mtb [2], the “MBC (minimal bactericidal concentration)” value was found to be 6.25 µM. In addition, the MIC in the assay on Mtb H37Rv turned out to be 1.25 µM.
`Cc1ccc(C(C)C)cc1.F[P-](F)(F)(F)(F)F.[I][Os+].c1ccc(N=Nc2ccccn2)cc1` [Complex 10] gave an IC50 in assay [1] of 0.79 ± 0.06 µM. For the same compound, the MIC against Mtb H37Rv stood at 5 µM.
Take `Cc1ccc(C(C)C)cc1.F[P-](F)(F)(F)(F)F.[Cl][Os+].c1ccc(N=Nc2ccccn2)cc1` [Complex 9]: the IC50 in assay [1] is 15 ± 2 µM. In addition, the MIC against Mtb H37Rv was 15.6 µM.
Taken in the same sequence, the figures for `F[P-](F)(F)(F)(F)F.Oc1ccc(N=Cc2ccccn2)cc1.[I][Os+].c1ccc(-c2ccccc2)cc1` [Complex 15] were 13.5 ± 0.9 µM and 5 µM.
Consider `[H]/N=C(/N)N[C@H]1[C@H](O)[C@@H](O)[C@H](O[C@@H]2O[C@@H](C)[C@](O)(C=O)[C@H]2O[C@@H]2O[C@@H](CO)[C@H](O)[C@@H](O)[C@@H]2NC)[C@@H](N/C(N)=N\[H])[C@@H]1O` [streptomycin], for which the “MIC of current clinical TB drugs” value in the assay on Mtb [3] is given as approximately 9 µM.
As to `CN(C)c1ccc(N=Cc2ccccn2)cc1.Cc1ccc(C(C)C)cc1.F[P-](F)(F)(F)(F)F.[Cl][Os+]` [Complex 5], the IC50 in assay [1] worked out at 7.6 ± 0.9 µM. Also, in the assay with Mtb H37Rv, the MIC stood at 31.25 µM.
With `CN(C)c1ccc(N=Nc2ccccn2)cc1.Cc1ccc(C(C)C)cc1.[I-].[I][Os+]` [Complex 8], the IC50 in assay [1] came to 0.42 ± 0.01 µM. The compound also gave a minimum inhibitory concentration (MIC) against Mtb H37Rv of 1.25 µM.
Regarding `CC[C@@H](CO)NCCN[C@@H](CC)CO` [ethambutol], the “MIC of current clinical TB drugs” value in the assay with Mtb [3] is listed as approximately 5 µM.
As for `F[P-](F)(F)(F)(F)F.Fc1ccc(N=Nc2ccccc2)nc1.[I][Os+].c1ccc(-c2ccccc2)cc1` [Complex 13], in assay [1], 5.2 ± 0.7 µM corresponded to half-maximal inhibition (IC50). In the assay with Mtb H37Rv, the MIC was determined as 62.5 µM.
Taken in the same sequence, the figures for `CN(C)c1ccc(N=Cc2ccccn2)cc1.Cc1ccc(C(C)C)cc1.F[P-](F)(F)(F)(F)F.[I][Os+]` [Complex 6] were 13 ± 2 µM and 7.81 µM.

(Values after paper PMC8026400, “Osmium–arene complexes with high potency towards Mycobacterium tuberculosis” (Metallomics: Integrated Biometal Science, 2021).)
